Test results reported in patent publication US20070259861A1, “Combination therapy with non-selective COX inhibitors to prevent COX-related gastric injuries” (Pharmena North America Inc., priority 2006, published 2007).
Blank lines part the entries; values can stand above or below the compound they belong to.

Key:
gastric mucosa = assay: ASA- and WRS-induced gastric lesions in non-diabetic and streptozocin-diabetic rats; format: in vivo; conditions: for rise of gastric blood flow (GBF): H2-gas clearance
Protocol: In this study, streptozocin (70 mg/kg injected intraperitoneally) was used to induce diabetes mellitus and non-diabetic and diabetic rats were pretreated 30 min prior to exposure to aspirin (ASA; 150 mg/kg in 0.1 N HCl i.g.) or 3.5 h of water immersion and restraint stress (WRS) with 1) vehicle (saline) or 2) MNA (2.5-50 mg/kg i.g.). The area and number of gastric lesions was determined by planimetry, gastric blood flow (GBF) was examined by H2-gas clearance technique, and mieloperoxidase (MPO) activity, activity of superoxide dismutase (SOD) and the malonyldialdehyde (MDA) concentration as an index of lipid peroxidation were determined in gastric mucosa using ELISA. The gene expression IL-1β and TNF-α in the gastric mucosa and their plasma levels were evaluated by RT-PCR and ELISA, respectively. […] This experiment is also described in an abstract published for Digestive Disease Week 2006 (May 20-25, 2006, Los Angeles, Calif.; http://www.medscape.com/viewprogram/5452).

[1] = system: prostacyclin (PGI2) release; conditions: cited from earlier work; for release of prostacyclin: animal models
[2] = ASA 150 mg/kg in 0.1 N HCl i.g.

gastric lesions (gastric mucosa; [2]): typical gastric lesions | reduction of GBF from basal (gastric mucosa; [2]): 35% | increase of MPO activity (gastric mucosa; ASA 150 mg/kg in 0.1 N HCl i.g., gastric mucosa): 2-3 fold | mucosal SOD activity (gastric mucosa; ASA-exposed animals without or with diabetes): significantly decreased | MDA activity (lipid peroxidation) (gastric mucosa; ASA-exposed animals without or with diabetes, gastric mucosa): significantly increased | plasma levels of TNF-α and IL-1 (gastric mucosa; ASA-exposed, ELISA): marked increase | mRNAs for TNF-α and IL-1 (gastric mucosa; ASA-exposed, gastric mucosa, RT-PCR): overexpression
Compound: CC(=O)Oc1ccccc1C(=O)O [ASA, aspirin]

Compound: C[n+]1cccc(C(N)=O)c1 [1-methylnicotinamide chloride]
release of prostacyclin [1]: ability to induce the release of prostacyclin

Compound: C[n+]1cccc(C(=O)NCO)c1 [1-methyl-N′-(hydroxymethyl)nicotinamide]
release of prostacyclin [1]: ability to induce the release of prostacyclin

Compound: CNC(=O)c1cccnc1 [MNA, N-methylnicotinamide]
decrease of mucosal SOD activity and increase of MDA (gastric mucosa; ASA- and WRS-exposed animals without or with diabetes): markedly attenuated | WRS-induced gastric erosions (gastric mucosa; MNA 2.5-50 mg/kg i.g. 30 min before 3.5 h WRS, diabetic and non-diabetic rats): dose-dependently attenuated | ASA-induced gastric erosions (gastric mucosa; MNA 2.5-50 mg/kg i.g. 30 min before ASA 150 mg/kg i.g., diabetic and non-diabetic rats): dose-dependently attenuated | IL-1β and TNF-α (gastric mucosa; gastric mucosa expression (RT-PCR) and plasma levels (ELISA)): downregulation | rise of gastric blood flow (GBF) (gastric mucosa; injured gastric mucosa): ~33% | rise of gastric blood flow (GBF) (gastric mucosa; intact gastric mucosa): about 22% | secretion of PGI2 ([1]; thrombolytic assay): stimulate the secretion of PGI2

Compound: 1-methyl-3-acetylpyridinium salt
release of prostacyclin [1]: ability to induce the release of prostacyclin
